Publication PMC3567211 (2012)

Tested on: TGGCTT (5'-biotin labeled hairpin DNA) (DNA, hairpin) CCTTGGCTTCTTTTGAAGCCAAGG
Assay: SPR, global kinetic 1:1 fit
Conditions: 50 mM Na+ (NaCl); 10 mM HEPES, 1 mM EDTA, 0.05% P20, pH 7.4, 25 °C

KA: 37 ± 7 × 10^8 M^-1
SMILES: CN(C)CCCNC(=O)CCNC(=O)c1cc(NC(=O)c2cc(NC(=O)c3nc(NC(=O)c4cc(NC(=O)CCCNC(=O)c5cc(NC(=O)c6cc(NC(=O)c7nc(NC(=O)c8nccn8C)cn7C)cn6C)cn5C)cn4C)cn3C)cn2C)cn1C
